Reference: publication PMC11574045, “A cofactor-induced repressive type of transcription factor condensation can be induced by synthetic peptides to suppress tumorigenesis” (The EMBO Journal, 2024)

System: HEK293FT cells transfected with TF library
Assay: Screening of TF condensates based on fluorescent puncta
Type: cell-based
Conditions: Figure 1B numerical data; TF library screen, one value per transcriptional factor
Method: TF plasmids were automatically added to black-walled 384-well plates at 80 ng per well to reach a final concentration of 1.6 μg/ml. Polyethylenimine (PEI, Sigma) was then added to the plasmid-loaded plates at 240 ng per well (4.8 μg/ml). Subsequently, HEK293FT cells were seeded into the plate at 2000 cells per well. After 60 h, cells were cultured in medium with or without glucose for 12 h, and then fixed with 4% paraformaldehyde (PFA) at room temperature for 30 min. After three washes with PBS, fixed cells were permeabilized with 0.05% Triton X-100 for 15 min. Thereafter, cells were blocked with 5% BSA for 1 h, and then incubated overnight with anti-Flag (Sigma F3165, 1:200) and anti-GAL4 (Abbkine ABP57232, 1:200) primary antibodies at 4 °C. The cells were then gently washed with PBS, followed by being incubated with Alexa Fluor Plus 488 goat anti-mouse IgG secondary antibody (Thermo A32723, 1:400) or Alexa Fluor Plus 488 goat anti-rabbit IgG secondary antibody (Thermo A32731, 1:400) for 1 h. The plates were kept at 4 °C in the dark before being analyzed using an Opera System (Perkin Elmer). Fifty random fields per well were scanned and analyzed using the Columbus Plus Image Data Storage and Analysis System (Perkin Elmer).

| Substance | Z score of condensed fraction |
| --- | --- |
| ANKRD1 | 1.047 |
| AP-2A | 0.4428 |
| ARNT2 | -0.9281 |
| ARX | -0.4034 |
| ATF4/CREB2 | 2.625 |
| BACH2 | 2.257 |
| BHLHE22 | 1.286 |
| BIRC3 | -0.652 |
| BMAL1 | -0.6251 |
| BTEB1 | -0.01224 |
| CFOS | 0.6801 |
| CHD6 | -1.082 |
| COPEB | -0.3064 |
| COPS5 | -0.1538 |
| CREB1 | -0.9562 |
| CSDA | -0.8745 |
| CTBP2 | 1.5 |
| DLX3 | -0.9246 |
| DLX5 | -0.5192 |
| DLX6 | -0.9336 |
| DMBX1 | -0.1986 |
| DMRTB1 | 1.668 |
| DOUBLESEX | -0.4806 |
| DYRK1B | -0.5775 |
| EED | -1.11 |

| Substance | Z score of condensed fraction |
| --- | --- |
| EGR2 | -0.8859 |
| EGR3 | 0.2174 |
| EHF | -0.3879 |
| ELF1 | 3.027 |
| ELK3 | 0.04681 |
| ELK4 | 0.361 |
| EPAS1 | -0.6882 |
| ETS2 | -0.1278 |
| ETV6 | -0.2068 |
| FEV | -0.8157 |
| FIGLA | 0.3984 |
| GATA3 | -0.2833 |
| GBX1 | 1.521 |
| GFI1 | -0.2635 |
| GFI1B | -0.772 |
| GLI2 | -0.605 |
| GSC2 | -0.9708 |
| HDGF | 2.149 |
| HIVEP2 | -0.8032 |
| HMGN3 | 1.967 |
| HOX11L2/RNX | 0.134 |
| HOXA1 | -0.1685 |
| HOXA3 | -0.6169 |
| HOXA5 | -1.091 |
| HOXA6 | 1.681 |

| Substance | Z score of condensed fraction |
| --- | --- |
| HOXA9 | -1.01 |
| HOXA10 | -0.1146 |
| HOXA11 | -0.6499 |
| HOXB4 | -1.061 |
| HOXB5 | -0.4916 |
| HOXB7 | 0.6165 |
| HOXB8 | -0.6846 |
| HOXB13 | -0.5432 |
| HOXC4 | 0.8193 |
| HOXC5 | -0.4333 |
| HOXC9 | -0.7207 |
| HOXC10 | -0.2628 |
| HOXC11 | -0.01391 |
| HOXD1 | -0.8333 |
| HOXD4 | -0.2008 |
| HOXD10 | -0.4162 |
| HOXD11 | -0.6245 |
| HOXD12 | 0.1237 |
| KDM5C | 0.549 |
| KDM5D | 0.3583 |
| KLF7 | 1.062 |
| KLF9 | -0.8423 |
| KLF13 | -0.9454 |
| KLF15 | 0.8588 |
| KLF16 | -0.8935 |

| Substance | Z score of condensed fraction |
| --- | --- |
| LHX6 | -0.2026 |
| LHX8 | -0.6943 |
| LYL1 | -0.8803 |
| MAD2 | -0.8457 |
| MAFG | 0.65 |
| MAX | 1.089 |
| MECOM | -0.8438 |
| MEOX1 | -0.5142 |
| MIXL1 | -0.6564 |
| MSX1 | -0.7505 |
| MTF1 | 0.05882 |
| MYT1L | -0.407 |
| NEUROD6 | 1.486 |
| NFIA | 0.5032 |
| NFIB | 0.509 |
| NFIC | -0.8557 |
| NH1H1 | -0.5104 |
| NKX3-1 | -0.7603 |
| NKX3-2 | 1.062 |
| NPM1 | 0.01602 |
| NR2E1/TLX | -0.5566 |
| NR5A1 | -0.8082 |
| NRBF2 | -0.07151 |
| OTX1 | -0.7284 |
| PAX2 | -1.114 |

| Substance | Z score of condensed fraction |
| --- | --- |
| PAX6 | -0.2168 |
| PAX9 | -0.6994 |
| PBRM1 | -1.101 |
| PCBD2 | -0.6918 |
| PDX1 | -0.1162 |
| PHF19 | -0.6582 |
| PHOX2A | 0.2668 |
| PHOX2B | -1.179 |
| PITX1 | 0.6327 |
| PITX3 | 1.221 |
| PNRC2 | 0.4868 |
| PRDM1 | -0.6129 |
| PRDM2 | -1.186 |
| PRDM4 | -0.7551 |
| PRDM13 | -0.08172 |
| PRRX1 | -0.08333 |
| PSMC3 | 1.134 |
| RAX2 | 0.03236 |
| RERE | -0.9918 |
| RHOA | 2.893 |
| RREB1 | -1.018 |
| SOX5 | -1.09 |
| SOX11 | 1.034 |
| SOX14 | 0.5877 |
| SOX15 | 0.259 |

| Substance | Z score of condensed fraction |
| --- | --- |
| SOX17 | 0.6231 |
| SOX21 | -0.645 |
| SP1 | -0.5886 |
| SP4 | 0.4803 |
| SP7 | -0.6845 |
| SP8 | -1.149 |
| SPIB | -0.6455 |
| SSX1 | 0.2068 |
| ST18 | -0.7086 |
| SUMO1 | -0.2512 |
| SUPT3H | 2.5076 |
| TADA1L | -0.6293 |
| TAF11 | -0.1333 |
| TAL1 | 1.608 |
| TAL2 | 1.36 |
| TFAP2C | 1.42 |
| TFAP2D | -0.6052 |
| TFAP2E | 1.779 |
| TGIF2 | 0.8605 |
| TIGD4 | -0.7471 |
| TLX2 | -0.3265 |
| TULP4 | -0.4703 |
| VSX1 | 0.9653 |
| VSX2 | 2.883 |
| WIZ | -0.9233 |

| Substance | Z score of condensed fraction |
| --- | --- |
| XRCC6 | -0.8161 |
| ZBTB8A | 0.3848 |
| ZBTB14 | -0.8092 |
| ZBTB16 | 0.8279 |
| ZDHHC17 | 0.6824 |
| ZFP1 | -1.01 |
| ZFP37 | -0.4393 |
| ZFP161 | -0.4432 |
| ZFP238 | -0.7406 |
| ZFP263 | 2.5993 |
| ZKSCAN8 | -0.06563 |
| ZNF10 | -0.8346 |
| ZNF22 | -0.4323 |
| ZNF34 | -0.5261 |
| ZNF37A | -0.5462 |
| ZNF57 | 0.3 |
| ZNF77 | -1.086 |
| ZNF92 | 0.2513 |
| ZNF132 | -0.5777 |
| ZNF133 | -0.4329 |
| ZNF136 | -0.8979 |
| ZNF175 | -0.614 |
| ZNF177 | -0.2364 |
| ZNF197 | -0.8156 |
| ZNF212 | -0.4443 |

| Substance | Z score of condensed fraction |
| --- | --- |
| ZNF221 | -0.687 |
| ZNF223 | 0.1367 |
| ZNF227 | -1.039 |
| ZNF230 | 0.8569 |
| ZNF254 | 0.4246 |
| ZNF257 | 0.03056 |
| ZNF267 | 2.62 |
| ZNF273 | -0.8812 |
| ZNF302 | -1.141 |
| ZNF320 | 0.5251 |
| ZNF329 | -0.4972 |
| ZNF333 | -0.8758 |
| ZNF345 | -1.14 |
| ZNF404 | -1.0199 |
| ZNF417 | 1.093 |
| ZNF432 | -0.5974 |
| ZNF433 | -0.2089 |
| ZNF454 | -0.2763 |
| ZNF490 | -0.9623 |
| ZNF496 | 0.02283 |
| ZNF500 | -0.7824 |
